Test results published in US7988957B2, “Gene introduction efficiency enhancer” (Genesis Healthcare Corp., priority 2003, dated 2011).

What was measured:
[1] = test system: human glioma cell line U251MG; experiment: AAV-vector-mediated EGFP transgene expression, fluorescence microscope; assay type: cell-based; settings: 24 hours
Description: (§1) FK228 which had been isolated and purified through the method described in Japanese Patent Publication (kokoku) No. 7-64872 was employed as a histone deacetylase inhibitor. The FK228 was dissolved in ethanol for storage. When in use, the FK228 was diluted with a medium, to thereby regulate the FK228 concentration to fall within a range of 0 to 100 ng/mL.
An AAV vector genome plasmid and a helper plasmid were introduced into 293 cells through the calcium phosphate method, and AAV vectors (types 1 to 5) which express EGFP (enhanced green fluorescent protein) under the control of a cytomegalovirus (CMV) promoter were prepared. Specifically, the AAV vector preparation was performed through the method described in the following references. • Reference 1: Methods 2002; 8: 237-247 (described above) • Reference 2: Methods Enzymol 2002; 346: 378-393 (described above) • 3. Cells and Cell Culture (1) Human Glioma Cell Line; U251MG, U87MG
U251MG was obtained from JCRB Cell Bank, National Institute of Health Sciences. […]
(§2) The effect of FK228 on enhancing expression of a transgene was evaluated with glioma cells. Type-2 AAV vector (1×10^4 genome copies/cell) and FK228 (0, 0.01, 0.1, 1, 10, or 100 ng/mL) were added to a culture supernatant of the human glioma cell line U251MG, and 24 hours later, expression of EGFP was observed under a fluorescence microscope.

[2] = test system: head and neck cancer cell line HEp-2; experiment: AAV-vector-mediated EGFP transgene expression; assay type: cell-based, human; settings: FK228 1 ng/mL
Description: as §1
(§3) An AAV vector genome plasmid and a helper plasmid were introduced into 293 cells through the calcium phosphate method, and AAV vectors (types 1 to 5) which express EGFP (enhanced green fluorescent protein) under the control of a cytomegalovirus (CMV) promoter were prepared. […]
as §2
(§4) Similar to the case of U251MG, in the cases of the head and neck cancer cell line HEp-2 and the subcultured human glioma cells (prepared from an operative specimen), the effect of FK228 in enhancing AAV-vector-mediated gene transfer was evaluated.

[3] = test system: subcultured human glioma cells (prepared from an operative specimen); experiment: AAV-vector-mediated EGFP transgene expression; assay type: cell-based; settings: FK228 1 ng/mL
Description: as §1, §3, §2, §4

U251MG [4] = experiment: Percent occurrence of EGFP-positive cells by FACS analysis; assay type: cell-based, human; settings: FK228 1 ng/mL, type-2 AAV vector, 24 hours, FIG. 1B
Description: (§5) Type-2 AAV vector (1×10^4 genome copies/cell) and FK228 (0, 0.01, 0.1, or 1 ng/mL) were added to a culture supernatant of U251MG, and 24 hours later, the percent occurrence of cells positive for CD51 (integrin) or EGFP was calculated through FACS analysis. The FACS analysis was performed through a customary method by use of FACSCan (Becton Dickinson, San Jose, Calif.) and CellQuest software (Becton Dickinson, San Jose, Calif.).
(§6) PE-labeled anti-CD51 monoclonal antibody: 13C2 was obtained from Cymbus Biotechnology Ltd., Chandlers Ford, UK. Dead cells were detected by means of 7-amino-actinomycin D (Via-Probe; Pharmingen, San Diego, Calif.).
(§7) Cells were washed with a FACS buffer (PBS containing 5% FBS and 0.05% sodium azide), and then incubated with the antibody on ice for 30 minutes. Fluorescences attributed to EGFP, PE, and Via-Probe were detected by FL1, FL2, and FL3, respectively. Cells negative for Via-Probe; i.e., viable cells, were employed for measuring expression of EGFP and/or CD51.

CD51 (integrin) = experiment: Percent occurrence of CD51 (integrin)-positive cells by FACS analysis; assay type: cell-based, human; settings: FK228 0, 0.01, 0.1 or 1 ng/mL; 24 hours; U251MG; FIG. 1A
Description: as §5, §6, §7

U251MG [5] = experiment: Number of viral genome copies taken into cells, real-time PCR; assay type: cell-based, human; settings: FK228 1 ng/mL
Description: Type-2 AAV vector (1×10^4 genome copies/cell) and FK228 (1 ng/mL) were added to a culture supernatant of U251MG, and the number of viral genome copies taken into cells was semi-quantified by means of real-time PCR (ABI, Prism 7700; QIAGEN, SYBR Green PCR kit QuantiTect) (performed through the method according to Mol. Ther. Aug. 6, 2002 (2): 272-278). After U251MG cells were infected with the type-2 AAV vector, the number of intracellular genome copies was measured in a time-course manner (0, 2, 4, 12, and 24 hours).

## C/C=C1\NC(=O)[C@H]2CSSCC/C=C/[C@H](CC(=O)N[C@H](C(C)C)C(=O)N2)OC(=O)[C@H](C(C)C)NC1=O [FK228]
[1]; FK228 at 1 ng/mL or more, type-2 AAV vector
  EGFP expression enhancing effect: remarkable EGFP expression enhancing effect
[1]; Type-2 AAV vector 1×10^4 genome copies/cell, FK228 0, 0.01, 0.1, 1, 10 or 100 ng/mL
  expression of EGFP: enhanced in an FK228-dose-dependent manner
[2]
  EGFP expression: enhanced
[3]
  EGFP expression: enhanced
U251MG [4]
  percent occurrence of EGFP-positive cells: sharply increased
CD51 (integrin)
  percent occurrence of integrin-positive cells: gradual increase
U251MG [5]; 24 hours after the infection
  genome copy number in the FK228-treated group: slight increase
U251MG [5]; type-2 AAV vector, 0, 2, 4, 12 and 24 hours, FIG. 2
  genome copy number, FK228-treated group versus control group (only a solvent): No significant difference
